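Five compound concentrations were applied to cells in 96-well plates for 48 hours; endpoints were derived by simple linear interpolation of the resulting dose-response curve. GI50 marks 50% less growth.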 Active and inactive are the calls of the source. Rule as the data show it: active = GI50 up to about 1.1 µM and inactive = higher.
Columns and labels:
Experiment in all cases: NCI-60 cell line screen, 48 h
[1] = tested on: SF-295
[2] = tested on: RXF 393
[3] = tested on: IGROV-1
[4] = tested on: CCRF-CEM
[5] = tested on: OVCAR-3
[6] = tested on: HT-29
[7] = tested on: TK-10
[8] = tested on: SF-539
[9] = tested on: A549
[10] = tested on: SK-MEL-28
[11] = tested on: KM12
[12] = tested on: 786-0
[13] = tested on: HCT-116
[14] = tested on: SK-MEL-2
[15] = tested on: MOLT-4
[16] = tested on: Malme-3M
[17] = tested on: PC-3
[18] = tested on: NCI-H23
[19] = tested on: HL-60
[20] = tested on: DU-145
[21] = tested on: SW-620
[22] = tested on: OVCAR-8
[23] = tested on: HCC 2998
[24] = tested on: UACC-257
[25] = tested on: SNB-75
[26] = tested on: SK-MEL-5
[27] = tested on: ACHN
[28] = tested on: EKVX
[29] = tested on: LOX IMVI
[30] = tested on: RPMI-8226
[31] = tested on: UO-31
[32] = tested on: HOP-62
[33] = tested on: T47D
[34] = tested on: MDA-MB-231
[35] = tested on: NCI/ADR-RES
[36] = tested on: Hs-578T
[37] = tested on: SN12C
[38] = tested on: BT-549
[39] = tested on: A498
[40] = tested on: OVCAR-5
[41] = tested on: HCT-15
[42] = tested on: MDA-MB-435
[43] = tested on: NCI-H226
[44] = tested on: SR
[45] = tested on: COLO 205
[46] = tested on: U-251
[47] = tested on: SF-268
[48] = tested on: K562
[49] = tested on: UACC-62
[50] = tested on: NCI-H460
[51] = tested on: OVCAR-4
[52] = tested on: HOP-92
[53] = tested on: MDA-N
[54] = tested on: MCF7
[55] = tested on: CAKI-1
[56] = tested on: NCI-H522
[57] = tested on: M14
[58] = tested on: SK-OV-3
[59] = tested on: SNB-19

With Nc1nccc(NCC2(CO)CC(CCc3ccccc3)C2)n1 (stereo not given) the GI50 [1] was 10.8 µM (inactive), the GI50 [2] was 15.6 µM (inactive) and the GI50 [3] was 13.2 µM (inactive). For the same compound, the GI50 [4] was 15.1 µM (inactive), the GI50 [5] was 12.3 µM (inactive) and the GI50 [6] was 11 µM (inactive). The GI50 [7] was 12.5 µM (inactive), the GI50 [8] was 15.8 µM (inactive) and the GI50 [9] was 13 µM (inactive). For the same compound, the GI50 [10] was 16.8 µM (inactive), the GI50 [11] was 17 µM (inactive) and the GI50 [12] was 14.6 µM (inactive). The GI50 [13] was 10.8 µM (inactive), the GI50 [14] was 14.5 µM (inactive) and the GI50 [15] was 7.98 µM (inactive). For the same compound, the GI50 [16] was 13.7 µM (inactive), the GI50 [17] was 15.1 µM (inactive) and the GI50 [18] was 12.2 µM (inactive). For the same compound, the GI50 [19] was 6.18 µM (inactive), the GI50 [20] was 12.4 µM (inactive) and the GI50 [21] was 18.3 µM (inactive). The GI50 [22] was 18.2 µM (inactive), the GI50 [23] was 19.5 µM (inactive) and the GI50 [24] was 14.3 µM (inactive). The GI50 [25] was 19.9 µM (inactive), the GI50 [26] was 4.06 µM (inactive) and the GI50 [27] was 13.9 µM (inactive). For the same compound, the GI50 [28] was 12.6 µM (inactive), the GI50 [29] was 14.3 µM (inactive) and the GI50 [30] was 10.8 µM (inactive). The GI50 [31] was 12.5 µM (inactive), the GI50 [32] was 18.2 µM (inactive) and the GI50 [33] was 6.52 µM (inactive). The GI50 [34] was 16.6 µM (inactive), the GI50 [35] was 14.2 µM (inactive) and the GI50 [36] was 19.8 µM (inactive). The GI50 [37] was 19.4 µM (inactive), the GI50 [38] was 21.3 µM (inactive) and the GI50 [39] was 13.2 µM (inactive). For the same compound, the GI50 [40] was 14 µM (inactive), the GI50 [41] was 18 µM and the GI50 [42] was 13.7 µM (inactive). The GI50 [43] was 16 µM (inactive), the GI50 [44] was 8.71 µM (inactive) and the GI50 [45] was 13.2 µM (inactive). The GI50 [46] was 13.7 µM (inactive), the GI50 [47] was > 10 µM (inactive) and the GI50 [48] was 4.74 µM (inactive). For the same compound, the GI50 [49] was 12.6 µM (inactive), the GI50 [50] was 12.3 µM (inactive) and the GI50 [51] was 20.7 µM (inactive). The GI50 [52] was 4.93 µM (inactive), the GI50 [53] was 14.9 µM (inactive) and the GI50 [54] was 10 µM (inactive). The GI50 [55] was 11.8 µM (inactive) and the GI50 [56] was 11.8 µM (inactive).
Clc1ccccc1-c1nc2cc(C34CC5CC(CC(C5)C3)C4)ccc2[nH]1 was tested, and the GI50 [1] was 13.6 µM (inactive), the GI50 [2] was 5.4 µM (inactive) and the GI50 [3] was 17.3 µM (inactive). For the same compound, the GI50 [4] was 33 µM (inactive), the GI50 [6] was 11.4 µM (inactive) and the GI50 [57] was 19.8 µM (inactive). The GI50 [7] was 19.1 µM (inactive), the GI50 [9] was 11.4 µM (inactive) and the GI50 [10] was 20.6 µM (inactive). For the same compound, the GI50 [11] was 53.2 µM (inactive), the GI50 [12] was 12.1 µM (inactive) and the GI50 [13] was 55.1 µM (inactive). The GI50 [14] was 15 µM (inactive), the GI50 [15] was 79.8 µM (inactive) and the GI50 [16] was 25.5 µM (inactive). The GI50 [17] was 15.1 µM (inactive), the GI50 [18] was 14.4 µM (inactive) and the GI50 [19] was 23.7 µM (inactive). For the same compound, the GI50 [20] was 23.2 µM (inactive), the GI50 [21] was 46 µM (inactive) and the GI50 [22] was 10.9 µM (inactive). For the same compound, the GI50 [23] was 49.3 µM (inactive), the GI50 [24] was 59.7 µM (inactive) and the GI50 [25] was 5.71 µM (inactive). For the same compound, the GI50 [26] was 32.7 µM (inactive), the GI50 [27] was 11.6 µM (inactive) and the GI50 [28] was 29.1 µM (inactive). The GI50 [29] was 12.4 µM (inactive), the GI50 [30] was 34.2 µM (inactive) and the GI50 [31] was 14.7 µM (inactive). The GI50 [32] was 14.3 µM (inactive), the GI50 [33] was 10.9 µM (inactive) and the GI50 [34] was 15 µM (inactive). For the same compound, the GI50 [35] was 28.1 µM (inactive), the GI50 [36] was 28.8 µM (inactive) and the GI50 [37] was 24.3 µM (inactive). For the same compound, the GI50 [58] was 16.1 µM (inactive), the GI50 [38] was 20 µM (inactive) and the GI50 [39] was 25 µM (inactive). The GI50 [40] was 17.8 µM (inactive), the GI50 [41] was 41.9 µM and the GI50 [42] was > 100 µM (inactive). For the same compound, the GI50 [59] was 10 µM (inactive), the GI50 [43] was 25.4 µM (inactive) and the GI50 [44] was 20.2 µM (inactive). For the same compound, the GI50 [45] was 34 µM (inactive), the GI50 [46] was 7.98 µM (inactive) and the GI50 [47] was 41.1 µM (inactive). For the same compound, the GI50 [48] was 27.5 µM (inactive), the GI50 [49] was 13.9 µM (inactive) and the GI50 [50] was 30.3 µM (inactive). The GI50 [51] was 21.5 µM (inactive), the GI50 [52] was 10.5 µM (inactive) and the GI50 [53] was 44 µM (inactive). The GI50 [54] was 11.2 µM (inactive), the GI50 [55] was 31.4 µM (inactive) and the GI50 [56] was 17 µM (inactive).
CN(C)c1ccc(/C=C(\NC(=O)c2ccccc2)C2NC(Cc3c[nH]c4ccccc34)C(=O)O2)cc1 (stereo not given) was tested, and the GI50 [1] was 36.1 µM (inactive), the GI50 [2] was > 91 µM (inactive) and the GI50 [3] was 5.37 µM (inactive). The GI50 [4] was 8.91 µM (inactive), the GI50 [5] was 60.8 µM (inactive) and the GI50 [6] was 3.25 µM (inactive). The GI50 [57] was 42.2 µM (inactive), the GI50 [9] was 5.16 µM (inactive) and the GI50 [10] was > 100 µM (inactive). The GI50 [11] was 6.71 µM (inactive), the GI50 [12] was 12.2 µM (inactive) and the GI50 [13] was 19.2 µM (inactive). For the same compound, the GI50 [14] was 27.3 µM (inactive), the GI50 [15] was 16.6 µM (inactive) and the GI50 [16] was 21.4 µM (inactive). For the same compound, the GI50 [17] was 27.4 µM (inactive), the GI50 [18] was 14 µM (inactive) and the GI50 [19] was 6.65 µM (inactive). The GI50 [20] was > 100 µM (inactive), the GI50 [21] was 9.42 µM (inactive) and the GI50 [22] was 5.98 µM (inactive). For the same compound, the GI50 [23] was 6.12 µM (inactive), the GI50 [24] was 40.6 µM (inactive) and the GI50 [25] was 39.4 µM (inactive). For the same compound, the GI50 [26] was 8.85 µM (inactive), the GI50 [27] was 8.85 µM (inactive) and the GI50 [28] was 8.99 µM (inactive). For the same compound, the GI50 [29] was > 24.8 µM (inactive), the GI50 [30] was 6.71 µM (inactive) and the GI50 [31] was 17.3 µM (inactive). The GI50 [32] was 41.2 µM (inactive), the GI50 [33] was > 54 µM (inactive) and the GI50 [34] was > 50.4 µM (inactive). For the same compound, the GI50 [35] was > 100 µM (inactive), the GI50 [36] was 11.2 µM (inactive) and the GI50 [37] was > 28.5 µM (inactive). The GI50 [58] was > 59.4 µM (inactive), the GI50 [38] was 12.1 µM (inactive) and the GI50 [39] was > 93.1 µM (inactive). For the same compound, the GI50 [40] was > 83.6 µM (inactive), the GI50 [41] was 14.3 µM and the GI50 [42] was 10.8 µM (inactive). The GI50 [59] was 12 µM (inactive), the GI50 [43] was > 100 µM (inactive) and the GI50 [44] was 41.8 µM (inactive). The GI50 [45] was 4.06 µM (inactive), the GI50 [46] was 4.49 µM (inactive) and the GI50 [47] was 11.6 µM (inactive). For the same compound, the GI50 [48] was 10.9 µM (inactive), the GI50 [49] was > 82.6 µM (inactive) and the GI50 [50] was 3.19 µM (inactive). For the same compound, the GI50 [51] was 12.3 µM (inactive), the GI50 [52] was > 24.1 µM (inactive) and the GI50 [53] was 34.8 µM (inactive). The GI50 [54] was 6.65 µM (inactive), the GI50 [55] was > 59 µM (inactive) and the GI50 [56] was 3.46 µM (inactive).

— ChEMBL document CHEMBL1201862, “PubChem BioAssay data set” (2004)
